Laboratory results published in patent publication US20260285850A1, “SUBSTITUTED OXAZOLIDINONES AND IMIDAZOLINONES AS HERBICIDES” (FMC CORPORATION, priority 2023, published 2026).

Tests used:
Type in all cases: in vivo
soybean (Glycine max) [1] = experiment: Test A postemergence application, visual injury rating 0-100; conditions: Postemergence
Excerpt: (§1) Seeds of plant species selected from barnyardgrass (Echinochloa crus-galli), blackgrass (Alopecurus myosuroides), corn (Zea mays), foxtail, giant (giant foxtail, Setaria faberi), green foxtail (Setaria viridis), goosegrass (Eleusine indica), kochia (Bassia scoparia), oat, wild (wild oat, Avena fatua), palmer (palmer amaranth, palmer pigweed, Amaranthus palmeri), ragweed (common ragweed, Ambrosia artemisiifolia), ryegrass, Italian (italian ryegrass, Lolium multiflorum), soybean (Glycine max) and wheat (Triticum aestivum) were planted into a blend of loam soil and sand and treated preemergence with a directed soil spray using test chemicals formulated in a non-phytotoxic solvent mixture which included a surfactant.
(§2) At the same time, plants selected from these crops and weed species and also galium (catchweed bedstraw, Galium aparine) and horseweed (Erigeron canadensis) were planted in pots containing the same blend of loam soil and sand and treated with postemergence applications of test chemicals formulated in the same manner. Plants ranged in height from 2 to 10 cm and were in the one- to two-leaf stage for the postemergence treatment. Treated plants and untreated controls were maintained in a greenhouse for 10 days, after which time all treated plants were compared to untreated controls and visually evaluated for injury. Plant response ratings, summarized in Table A, are based on a 0 to 100 scale where 0 is no effect and 100 is complete control. A dash (-) response means no test result.

corn (Zea mays) [2] = experiment: as above; conditions: Postemergence
Excerpt: as §1, §2

kochia (Bassia scoparia) [3] = experiment: as above; conditions: Postemergence
Excerpt: as §1, §2

[4] = tested on: ragweed (common ragweed, Ambrosia artemisiifolia); experiment: as above; conditions: Postemergence
Excerpt: as §1, §2

[5] = tested on: blackgrass (Alopecurus myosuroides); experiment: as above; conditions: Postemergence
Excerpt: as §1, §2

[6] = tested on: horseweed (Erigeron canadensis); experiment: as above; conditions: Postemergence
Excerpt: as §1, §2

[7] = tested on: ryegrass, Italian (italian ryegrass, Lolium multiflorum); experiment: as above; conditions: Postemergence
Excerpt: as §1, §2

[8] = tested on: palmer (palmer amaranth, palmer pigweed, Amaranthus palmeri); experiment: as above; conditions: Postemergence
Excerpt: as §1, §2

[9] = tested on: galium (catchweed bedstraw, Galium aparine); experiment: as above; conditions: Postemergence
Excerpt: as §1, §2

[10] = tested on: barnyardgrass (Echinochloa crus-galli); experiment: as above; conditions: Postemergence
Excerpt: as §1, §2

[11] = tested on: oat, wild (wild oat, Avena fatua); experiment: as above; conditions: Postemergence
Excerpt: as §1, §2

[12] = tested on: wheat (Triticum aestivum); experiment: as above; conditions: Postemergence
Excerpt: as §1, §2

soybean (Glycine max) [13] = experiment: Test A preemergence soil spray, visual injury rating 0-100; conditions: 10 days, 0 = no effect, 100 = complete control
Excerpt: as §1, §2

corn (Zea mays) [14] = experiment: as above; conditions: 10 days, 0 = no effect, 100 = complete control
Excerpt: as §1, §2

kochia (Bassia scoparia) [15] = experiment: as above; conditions: 10 days, 0 = no effect, 100 = complete control
Excerpt: as §1, §2

[16] = tested on: ragweed (common ragweed, Ambrosia artemisiifolia); experiment: as above; conditions: 10 days, 0 = no effect, 100 = complete control
Excerpt: as §1, §2

[17] = tested on: blackgrass (Alopecurus myosuroides); experiment: as above; conditions: 10 days, 0 = no effect, 100 = complete control
Excerpt: as §1, §2

[18] = tested on: ryegrass, Italian (italian ryegrass, Lolium multiflorum); experiment: as above; conditions: 10 days, 0 = no effect, 100 = complete control
Excerpt: as §1, §2

[19] = tested on: palmer (palmer amaranth, palmer pigweed, Amaranthus palmeri); experiment: as above; conditions: 10 days, 0 = no effect, 100 = complete control
Excerpt: as §1, §2

[20] = tested on: barnyardgrass (Echinochloa crus-galli); experiment: as above; conditions: 10 days, 0 = no effect, 100 = complete control
Excerpt: as §1, §2

[21] = tested on: oat, wild (wild oat, Avena fatua); experiment: as above; conditions: 10 days, 0 = no effect, 100 = complete control
Excerpt: as §1, §2

[22] = tested on: wheat (Triticum aestivum); experiment: as above; conditions: 10 days, 0 = no effect, 100 = complete control
Excerpt: as §1, §2

[23] = 31 g ai/ha, greenhouse 10 days, 0 no effect, 100 complete control
[24] = 125 g ai/ha, 10 days, 0 is no effect, 100 is complete control

`CC1(C(=O)NC2C=CC(C(=O)NS(=O)(=O)C(C)(C)C)C2)CN(c2cc(F)cc(F)c2)C(=O)O1` (centres unmarked) [Compound 80] was tested, and the “Soybean plant response rating (0 to 100 scale)” value (soybean (Glycine max) [1]; [23]) was 70, the “Soybean plant response rating (0 to 100 scale)” value (soybean (Glycine max) [1]; [24]) was 80 and the “Corn plant response rating (0 to 100 scale)” value (corn (Zea mays) [2]; [23]) was 30. For the same compound, the “Corn plant response rating (0 to 100 scale)” value (corn (Zea mays) [2]; [24]) was 100, the “Kochia plant response rating (0 to 100 scale)” value (kochia (Bassia scoparia) [3]; [23]) was 70 and the “Kochia plant response rating (0 to 100 scale)” value (kochia (Bassia scoparia) [3]; [24]) was 80. For the same compound, the “Ragweed plant response rating (0 to 100 scale)” value [4, 23] was 0, the “Ragweed plant response rating (0 to 100 scale)” value [4, 24] was 40 and the “Blackgrass plant response rating (0 to 100 scale)” value [5, 23] was 30. For the same compound, the “Blackgrass plant response rating (0 to 100 scale)” value [5, 24] was 70, the “Horseweed plant response rating (0 to 100 scale)” value [6, 23] was 10 and the “Horseweed plant response rating (0 to 100 scale)” value [6, 24] was 70. The “Ryegrass, Italian plant response rating (0 to 100 scale)” value (“Ryegrass … (0 to 100 scale)” below) [7, 23] was 70, the “Ryegrass … (0 to 100 scale)” value [7, 24] was 80 and the “Amaranth, Palmer / Pigweed, Palmer plant response rating (0 to 100 scale)” value [8, 23] was 50. The “Amaranth, Palmer / Pigweed, Palmer plant response rating (0 to 100 scale)” value [8, 24] was 70, the “Galium plant response rating (0 to 100 scale)” value [9, 23] was 80 and the “Galium plant response rating (0 to 100 scale)” value [9, 24] was 80. The “Barnyardgrass plant response rating (0 to 100 scale)” value [10, 23] was 80, the “Barnyardgrass plant response rating (0 to 100 scale)” value [10, 24] was 90 and the “Oat, Wild plant response rating (0 to 100 scale)” value (“Oat … (0 to 100 scale)” for short) [11, 23] was 90. The “Oat … (0 to 100 scale)” value [11, 24] was 90, the “Wheat plant response rating (0 to 100 scale)” value [12, 23] was 60 and the “Wheat plant response rating (0 to 100 scale)” value [12, 24] was 90. The “Soybean plant response rating (0-100)” value (soybean (Glycine max) [13]; 31 g ai/ha) was 0, the “Soybean plant response rating (0 to 100 scale)” value (soybean (Glycine max) [13]; 125 g ai/ha) was 10 and the “Corn plant response rating (0-100)” value (corn (Zea mays) [14]; 31 g ai/ha) was 0. The “Corn plant response rating (0 to 100 scale)” value (corn (Zea mays) [14]; 125 g ai/ha) was 0, the “Kochia plant response rating (0-100)” value (kochia (Bassia scoparia) [15]; 31 g ai/ha) was 0 and the “Kochia plant response rating (0 to 100 scale)” value (kochia (Bassia scoparia) [15]; 125 g ai/ha) was 70. For the same compound, the “Ragweed plant response rating (0-100)” value ([16]; 31 g ai/ha) was 10, the “Ragweed plant response rating (0 to 100 scale)” value ([16]; 125 g ai/ha) was 0 and the “Blackgrass plant response rating (0-100)” value ([17]; 31 g ai/ha) was 0. For the same compound, the “Blackgrass plant response rating (0 to 100 scale)” value ([17]; 125 g ai/ha) was 30, the “Ryegrass, Italian plant response rating (0-100)” value ([18]; 31 g ai/ha) was 0 and the “Ryegrass … (0 to 100 scale)” value ([18]; 125 g ai/ha) was 60. For the same compound, the “Amaranth, Palmer plant response rating (0-100)” value ([19]; 31 g ai/ha) was 0, the “Amaranth, Palmer plant response rating (0 to 100 scale)” value ([19]; 125 g ai/ha) was 50 and the “Barnyardgrass plant response rating (0-100)” value ([20]; 31 g ai/ha) was 0. The “Barnyardgrass plant response rating (0 to 100 scale)” value ([20]; 125 g ai/ha) was 40, the “Oat, Wild plant response rating (0-100)” value ([21]; 31 g ai/ha) was 0 and the “Oat … (0 to 100 scale)” value ([21]; 125 g ai/ha) was 30. For the same compound, the “Wheat plant response rating (0-100)” value ([22]; 31 g ai/ha) was 0 and the “Wheat plant response rating (0 to 100 scale)” value ([22]; 125 g ai/ha) was 50.
